Measured values published in patent US20040102422A1, “Cancer therapy” (The University of Bristol, priority 2001, published 2004).

How the values were obtained:
HeLa cells [1] = assay: Apoptosis of HeLa cells transiently transfected with pWEB-E2 (HPV 16 E2) or empty pWEB, scored by GFP and Hoechst stain; format: cell-based
Procedure: (§1) In all of the following experiments, HeLa cells were maintained in Minimal Essential Medium (MEM: Sigma) supplemented with 10% Foetal Bovine Serum (FBS: Sigma) and penicillin (100,000 U/litre) and streptomycin (100 mg/litre) at 37° C. in 5% CO2. In some cases, supplements (all obtained from Sigma, with the exception of 3-hydroxytamoxifen which was obtained from Research Biochemicals International (RBI)) were added to the media at the concentrations specifically indicated for each separate experiment.
Prior to transient transfection, cells were seeded at 3×10^5 cells per well onto coverslips in 6 well plates and incubated overnight to obtain a sub-confluent culture. The liposome based reagent Tfx-20 (Promega) was used at a 3:1 liposome:DNA ratio in 1 ml serum-free media per transfection, according to the manufacturer's instructions. After 30 hours, the coverslips were washed in phosphate buffered saline (PBS) and the cells fixed in 4% paraformaldehyde/PBS at 22° C. for 30 minutes. Following further washes in PBS, the cells were stained with bisbenzimide (Hoechst No. 33258: Sigma) for 30 minutes. Finally the coverslips were washed in PBS and mounted onto microscope slides in 10 μl MOWIOL (Calbiochem).
Where used, fluorescence microscopy was carried out using a Leica DM IRBE inverted epi-fluorescent microscope with FITC and DAPI filter sets and a 20× air objective (Leica).
The plasmid pWEB-E2 expresses the HPV 16 E2 protein (Webster, K. et al., (2000) supra). Increasing amounts of pWEB-E2 and the empty pWEB vector were transiently transfected into HeLa cells, an HPV 18-transformed cell cervical carcinoma cell line, along with a plasmid (pCMX-GFP3- supplied by Dr Jeremy Tavaré of the Department of Biochemistry, University of Bristol, UK) that expresses the green fluorescent protein (GFP). After 30 hours the cells were fixed and then stained with bisbenzimide (Hoechst stain). Individual cells were scored as untransfected or transfected on the basis of GFP expression and then examined for chromatin condensation and membrane blebbing using Hoechst stain and GFP, respectively (Webster, K. et al., (2000) spra). 100 transfected cells were counted and the experiment was repeated four times.

HeLa cells [2] = assay: MTT assay of HeLa cell viability / proliferation; format: cell-based; settings: for cell proliferation (number of viable cells, MTT): HeLa cultured in media containing the single agent, read at 24 hour intervals, FIG. 1(d), 1(e)
Procedure: as §1
Where MTT assays were carried out, this involved removal of the media, followed by incubation of the cells in 50 μg/ml MTT (3-(4,5 dimethylthiazol 2-yl) 2,5 diphenyl tetrazolium bromide) for 2 hours at 37° C. The blue formazan crystals were extracted and dissolved in DMSO (dimethylsulfoxide), and the absorbance measured at 560 nm wavelength using an ELISA plate reader (Mosmann, T. (1983) Journal of Immunological Methods 65, 55-631983).
To examine the effects of RU486 and progesterone on cell proliferation, HeLa cells were cultured in media containing RU486 and/or progesterone and at 24 hour intervals the number of viable cells was determined using MTT assays (Mosmann, T. (1983) supra). […] The presence of RU486 has little effect on cell proliferation (FIG. 1(e)).

CC#C[C@]1(O)CC[C@H]2[C@@H]3CCC4=CC(=O)CCC4=C3[C@@H](c3ccc(N(C)C)cc3)C[C@@]21C [RU486, Mifepristone]
levels of apoptosis (HeLa cells [1]; 2 μM progesterone plus 100 nM and 200 nM RU486, compared with 50 nM RU486, FIG. 1(c)): raised compared to those at 50 nM RU486
level of E2-induced apoptosis (HeLa cells [1]; pWEB-E2 transfected HeLa, 2 μM progesterone plus 50 nM RU486, FIG. 1(c)): reduced almost to the background levels
level of apoptosis in the untransfected cells (HeLa cells [1]; progesterone plus 200 nM RU486, FIG. 1(c)): slight increase
cell proliferation (number of viable cells, MTT) (HeLa cells [2]): little effect

C[C@]12CC[C@@H]3c4ccc(O)cc4CC[C@H]3[C@@H]1C[C@@H](O)C2=O [16α-hydroxyestrone]
level of E2-induced apoptosis (HeLa cells [1]; pWEB-E2 transfected HeLa incubated 24 hours in media with various concentrations of the hormone, FIG. 2(a), 2(b)): increases the level of E2-induced apoptosis

CC(=O)[C@H]1CC[C@H]2[C@@H]3CCC4=CC(=O)CC[C@]4(C)[C@H]3CC[C@]12C [progesterone]
levels of E2-induced apoptosis (HeLa cells [1]; HeLa cultured in 2 μM progesterone for one week prior to transfection with pWEB-E2, FIG. 1(b)): significant increase
level of apoptosis in E2 expression plasmid transfected population (HeLa cells [1]; HeLa cultured in 2 μM progesterone one week before transfection and incubated in 2 μM progesterone, no RU486, FIG. 1(c)): high levels of apoptosis
level of apoptosis in cells transfected with the empty pWEB vector (HeLa cells [1]; HeLa cultured in progesterone for one week prior to transfection with pWEB, FIG. 1(b)): around 7%
cell proliferation (number of viable cells, MTT) (HeLa cells [2]): decrease in cell proliferation

CC/C(=C(/c1ccc(OCCN(C)C)cc1)c1cccc(O)c1)c1ccccc1 [3-OHT, 3-hydroxytamoxifen]
percentage of apoptotic cells in the pWEB-transfected population (HeLa cells [1]; empty vector pWEB, presence of estrogen and 3-OHT, FIG. 2(c)): around 5%
percentage of apoptotic cells (HeLa cells [1]; pWEB-E2 transfected HeLa, 400 nM estrogen plus 400 nM 3-OHT, FIG. 2(c)): around 10%
proliferation of HeLa cells (MTT) (HeLa cells [2]; 3-OHT alone or 3-OHT with estrogen, over time, FIG. 2(e), 2(f)): no effect
